The record followed here is US7799747B2, “Method of reducing surfactant damage using compositions comprising benefit agents of defined high polarity” (Conopco, Inc., priority 2005, dated 2010).

One test has as its system pig skin. In words: HPLC test for surfactant deposition onto pig skin after wash. To be noted: SDS measured in combination with the benefit agent.
The target in a further test is BSA (Bos taurus, UniProt P02769). Description: Micro-DSC for protein denaturation. To be noted: denaturation enthalpy approaching zero, FIG. 5.
Test [1] has as its target BSA (Bovine Serum Albumin) (Bos taurus, UniProt P02769). In words: Conductivity test: surfactant binding to BSA protein. To be noted: 10% SDS with 10% oil (1:1), 0.5% BSA in 0.02M acetate buffer pH~5.2, room temperature. As for the experimental part:
Conductance measurements were carried out at room temperature by use of a Thermo conductivity meter, model Orion 150+. Routinely, the titrations were performed by adding a controlled amount of 10% of stock surfactant solution under magnetic stirring into the 0.5% BSA (Bovine Serum Albumin) in 0.02M acetate buffer at pH˜5.2. Values of CMC (critical micellization concentration), CAC (critical aggregation concentration) and protein saturation point (PSP) were defined by the changing of the slope of the conductivity vs. surfactant concentration plots. The number of surfactants binding to each protein can be calculated by: {[PSP]−[CAC]}/{[protein]/Mwprotein}, where [protein] is the protein concentration.
In order to show the effect of benefit agent having different polarity on binding to protein molecule (a reflection of the harshness of surfactant; more surfactant binding to protein equal harsher and more damage expected), applicants tested surfactant binding of (1) surfactant alone and (2) of surfactant in combination with various oils/cosolvents (at 1:1 surfactant to oil ratio) to see level of (how many) surfactants binding per protein molecule (e.g., BSA) at saturation. The tests were done using conductivity test described in protocol and results are set forth below in Table 1.
Applicants conducted same test as in Examples 1 to 10, but used SLES/CAPB surfactant system instead of SDS.

Chain of BSA (Bovine Serum Albumin) (P02769 25-607): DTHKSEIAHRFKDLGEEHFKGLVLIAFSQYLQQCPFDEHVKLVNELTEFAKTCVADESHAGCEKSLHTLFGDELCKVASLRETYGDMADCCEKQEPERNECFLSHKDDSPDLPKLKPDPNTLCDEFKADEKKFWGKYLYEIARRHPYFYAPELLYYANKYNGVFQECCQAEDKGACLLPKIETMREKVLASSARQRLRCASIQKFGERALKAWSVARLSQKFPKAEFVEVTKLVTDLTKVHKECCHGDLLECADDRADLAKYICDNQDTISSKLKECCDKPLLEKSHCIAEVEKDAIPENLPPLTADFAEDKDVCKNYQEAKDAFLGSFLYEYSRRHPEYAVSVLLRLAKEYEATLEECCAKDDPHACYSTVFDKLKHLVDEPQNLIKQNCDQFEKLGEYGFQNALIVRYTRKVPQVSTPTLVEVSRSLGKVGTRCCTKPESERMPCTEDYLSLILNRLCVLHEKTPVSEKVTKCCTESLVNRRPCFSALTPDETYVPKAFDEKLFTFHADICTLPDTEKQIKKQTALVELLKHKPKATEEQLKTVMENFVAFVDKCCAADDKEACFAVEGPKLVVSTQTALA
Chain of BSA (P02769 25-607): as above

`CCCCCCCCCCCC` [dodecane]: the “SDS deposition versus SDS alone (FIG. 1)” value in the test on pig skin is reported as “deposition was about the same or higher”.
Regarding `CCCCCCCCCCCCOS(=O)(=O)[O-].[Na+]` [10% SDS, Sodium dodecyl sulfate], the “ratio surfactant to protein at which BSA is fully denatured at room temperature” value on BSA was “about 1.2”. Further, the “Saturated binding: No. of surfactant per BSA at saturation” value in test [1] was determined as 220.
